From the NIST ThermoML archive (doi:10.1016/j.jct.2014.12.022) come the findings set out here.

Numbers after ± are expanded uncertainties.

Data set [1] can be described thus: molar heat capacity at constant pressure. The note with it: 101.33 kPa, Liquid, Small sample (50 mg) DSC.
For data set [2] the following is noted: 101.33 kPa, Liquid; for speed of sound: Sing-around technique in a fixed-path interferometer; for mass density: Vibrating tube method.

The term speed of sound denotes how fast a sound wave travels through the sample. As a reminder, the mass density is the mass of a sample divided by its volume. As for `c1ccccc1` [benzene], the “molar heat capacity at constant pressure” value in data set [1] (293.15 K) amounted to 133.58 ± 2.7 J/K/mol; in data set [1] (298.15 K) it was 135.28 ± 2.7 J/K/mol; in data set [1] (303.15 K) it was 136.58 ± 2.7 J/K/mol. For the same compound, the speed of sound in data set [2] (293.15 K) is listed as 1322.6 ± 1.5 m/s; in data set [2] (298.15 K), 1299.4 ± 1.5 m/s; in data set [2] (303.15 K) it was 1276.2 ± 1.5 m/s. Moreover, the mass density in data set [2] (293.15 K) is 878.89 ± 1 kg/m3; in data set [2] (298.15 K), 873.54 ± 1 kg/m3; in data set [2] (303.15 K) it was 868.2 ± 1 kg/m3.
For the compound `CN1CCCC1=O` [N-methylpyrrolidone], the “molar heat capacity at constant pressure” value in data set [1] (293.15 K) was 165.44 ± 3.3 J/K/mol; in data set [1] (298.15 K), 166.22 ± 3.3 J/K/mol; in data set [1] (303.15 K), 166.92 ± 3.3 J/K/mol. Besides, the speed of sound is 1565.6 ± 1.6 m/s in data set [2] (293.15 K), 1546.1 ± 1.6 m/s in data set [2] (298.15 K) and 1527.3 ± 1.6 m/s in data set [2] (303.15 K). Also, the results for the mass density in data set [2] (293.15 K), in data set [2] (298.15 K) and in data set [2] (303.15 K) were 1033.3 ± 1 kg/m3, 1028.3 ± 1 kg/m3 and 1023.5 ± 1 kg/m3, respectively.
